Test results as given in paper PMC5594043, “CYP79 P450 monooxygenases in gymnosperms: CYP79A118 is associated with the formation of taxiphyllin in Taxus baccata” (Plant Molecular Biology, 2017).

Biological target: T1, CYP79A118 full-length (CYP79A118-M1) (Taxus baccata, UniProt A0A288W866)
T1 construct: full-length ORF; yeast WAT11 microsomes with Arabidopsis CPR1; pESC-Leu2d
Format: biochemical
Settings: 1 mM substrate; NADPH 1 mM; Arabidopsis CPR1 in microsomes; 75 mM sodium phosphate pH 7.0; 25 °C; product indole-3-acetaldoxime

N[C@@H](Cc1c[nH]c2ccccc12)C(=O)O [Trp, L-tryptophan]
LC-MS/MS of aldoxime product, yeast microsomes: the full-length protein as well as the truncated version showed enzymatic activity with the aromatic
